Data on three molecules can be found in patent US6713265B1 (Synaptic Pharmaceutical Corporation, priority 1999, dated 2004).

In experiment [1] the target is T1, human Y2 receptor (Homo sapiens, UniProt P49146).
T1 construct: expressed in transfected cells; host or cells: COS-7 (transient)
T1 sequence (P49146 1-381): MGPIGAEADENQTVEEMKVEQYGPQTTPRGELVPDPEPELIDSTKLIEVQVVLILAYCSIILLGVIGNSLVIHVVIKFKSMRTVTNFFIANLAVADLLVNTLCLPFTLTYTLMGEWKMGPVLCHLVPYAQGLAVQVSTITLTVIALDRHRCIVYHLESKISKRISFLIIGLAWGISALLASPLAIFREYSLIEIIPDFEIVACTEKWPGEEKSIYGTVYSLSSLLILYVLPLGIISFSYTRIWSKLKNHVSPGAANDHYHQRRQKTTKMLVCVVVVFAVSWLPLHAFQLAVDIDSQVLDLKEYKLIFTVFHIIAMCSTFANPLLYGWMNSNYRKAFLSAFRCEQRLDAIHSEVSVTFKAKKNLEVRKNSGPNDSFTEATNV
Kind of experiment: ^125I-PYY binding to membranes, cloned human Y2 receptor. As to conditions: read-out: Binding Affinity Ki vs. ^125I-PYY, Human Receptor Y2; Table 14; stably transfected 293 cells (compound 1 also COS-7).

Experiment [2] deals with 5HT1Dα (Homo sapiens, UniProt P28221). Kind of experiment: Binding at cloned human 5HT1Dα receptor.
Sequence of 5HT1Dα (P28221 whole entry): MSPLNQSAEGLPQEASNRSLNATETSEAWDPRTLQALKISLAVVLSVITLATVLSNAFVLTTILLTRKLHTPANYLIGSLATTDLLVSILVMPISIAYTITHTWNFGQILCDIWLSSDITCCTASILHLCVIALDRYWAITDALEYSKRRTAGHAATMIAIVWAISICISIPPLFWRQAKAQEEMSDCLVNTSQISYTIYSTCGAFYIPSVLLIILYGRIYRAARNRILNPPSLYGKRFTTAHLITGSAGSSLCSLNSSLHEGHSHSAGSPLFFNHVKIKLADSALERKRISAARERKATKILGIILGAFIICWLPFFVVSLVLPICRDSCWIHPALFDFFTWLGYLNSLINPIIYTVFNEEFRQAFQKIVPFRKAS
Description: The cell line for the 5HT1Dα receptor, designated as Ltk-8-30-84, was deposited on Apr. […] The cell for the 5HT1Dβ receptor, designated as Ltk-11, was deposited on Apr. […] Membrane preparations comprising these receptors were prepared as described below, and suspended in 50 mM Tris-HCl buffer (pH 7.4 at 37° C.) containing 10 mM MgCl2, 0.2 mM EDTA, 10 μM pargyline, and 0.1% ascorbate. The binding of compounds was determined in competition binding assays by incubation for 30 minutes at 37° C. in the presence of 5 nM [^3H]serotonin. Nonspecific binding was determined in the presence of 10 μM serotonin.
Experiment [3] concerns the target T2, α1d (Homo sapiens, UniProt P25100).
T2 sequence (P25100 1-572): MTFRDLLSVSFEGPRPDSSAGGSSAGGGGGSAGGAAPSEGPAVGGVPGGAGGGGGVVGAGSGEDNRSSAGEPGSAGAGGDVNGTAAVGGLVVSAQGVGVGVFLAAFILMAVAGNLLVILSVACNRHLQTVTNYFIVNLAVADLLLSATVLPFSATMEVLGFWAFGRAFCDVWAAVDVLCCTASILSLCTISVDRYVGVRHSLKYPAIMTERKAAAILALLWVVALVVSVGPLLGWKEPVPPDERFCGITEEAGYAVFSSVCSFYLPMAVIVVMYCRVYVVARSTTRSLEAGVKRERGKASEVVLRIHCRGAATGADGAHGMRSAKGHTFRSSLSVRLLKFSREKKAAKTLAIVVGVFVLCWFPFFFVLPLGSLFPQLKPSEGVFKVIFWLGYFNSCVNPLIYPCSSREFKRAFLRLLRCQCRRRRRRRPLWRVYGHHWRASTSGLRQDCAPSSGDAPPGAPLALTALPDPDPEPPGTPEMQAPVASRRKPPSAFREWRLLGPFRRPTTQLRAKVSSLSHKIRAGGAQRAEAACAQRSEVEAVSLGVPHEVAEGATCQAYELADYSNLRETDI
Briefly: Binding at cloned human α1d adrenergic receptor.

Experiment [4] addresses T3, 5HT2 (Homo sapiens, UniProt P28223).
T3 construct: expressed in transfected cells; host or cells: COS-7 (DEAE-dextran); the same paragraph also names the deposited cell line L-NGC-5HT2 (ATCC CRL 10287)
Briefly: Binding at cloned human 5HT2 receptor.
Description: Human 5HT2 Receptor: The coding sequence of the human 5HT2 receptor was obtained from a human brain cortex cDNA library, and cloned into the cloning site of pcEXV-3 eukaryotic expression vector. […] Nonspecific binding was defined by the addition of 10 μM mianserin.

Experiment [5] addresses T4, α2a (Homo sapiens, UniProt P08913).
T4 sequence (P08913 1-465): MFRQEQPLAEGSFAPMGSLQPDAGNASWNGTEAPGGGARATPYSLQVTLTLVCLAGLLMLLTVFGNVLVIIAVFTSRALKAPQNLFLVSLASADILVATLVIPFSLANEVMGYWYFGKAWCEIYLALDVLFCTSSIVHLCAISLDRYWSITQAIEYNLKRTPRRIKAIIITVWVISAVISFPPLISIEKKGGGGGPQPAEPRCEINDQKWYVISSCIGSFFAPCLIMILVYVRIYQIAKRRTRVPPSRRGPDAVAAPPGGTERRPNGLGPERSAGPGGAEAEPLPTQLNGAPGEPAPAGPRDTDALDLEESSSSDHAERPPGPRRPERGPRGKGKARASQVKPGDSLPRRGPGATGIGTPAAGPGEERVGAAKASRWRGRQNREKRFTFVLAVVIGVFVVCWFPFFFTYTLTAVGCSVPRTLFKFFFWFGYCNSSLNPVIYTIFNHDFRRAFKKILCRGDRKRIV
Kind of experiment: Binding at cloned human α2a adrenergic receptor.

The test system of experiment [6] is food intake. Briefly: Food intake in food-deprived rats. The format is in vivo, rat. As to conditions: 30 mg/kg i.p., after 24h food deprivation.
Description: After receipt, the animals are individually housed for the duration of the study and allowed free access to normal food together with tap water. The animals are maintained in a room with a 12 h light/dark cycle (8:00 a.m. to 8:00 p.m. light) at 24° C. and monitored humidity. After placement into individual cages the rats undergo a 4 day equilibration period, during which they are habituated to their new environment and to eating a powdered or pellet diet NAFAG, Gossau, Switzerland).
At the end of the equilibration period, food is removed from the animals for 24 hours starting at 8:00 a.m. At the end of the fasting period compound or vehicle may be administered to the animals orally or by injection intraperitoneally or intravenously. After 10-60 min. food is returned to the animals and their food intake is monitored at various time periods during the following 24 hour period. The food intake of animals treated with test compound may be calculated as a percentage of the food intake of control animals (i.e., animals treated with vehicle). Alternatively, food intake for each group of animals subjected to a particular experimental condition may be expressed as the mean±S.E.M.
Measurements were performed two hours after administration of the test compound.
Experiment [7] deals with T5, human Y5 receptor (Homo sapiens, UniProt Q15761).
T5 sequence (Q15761 1-445): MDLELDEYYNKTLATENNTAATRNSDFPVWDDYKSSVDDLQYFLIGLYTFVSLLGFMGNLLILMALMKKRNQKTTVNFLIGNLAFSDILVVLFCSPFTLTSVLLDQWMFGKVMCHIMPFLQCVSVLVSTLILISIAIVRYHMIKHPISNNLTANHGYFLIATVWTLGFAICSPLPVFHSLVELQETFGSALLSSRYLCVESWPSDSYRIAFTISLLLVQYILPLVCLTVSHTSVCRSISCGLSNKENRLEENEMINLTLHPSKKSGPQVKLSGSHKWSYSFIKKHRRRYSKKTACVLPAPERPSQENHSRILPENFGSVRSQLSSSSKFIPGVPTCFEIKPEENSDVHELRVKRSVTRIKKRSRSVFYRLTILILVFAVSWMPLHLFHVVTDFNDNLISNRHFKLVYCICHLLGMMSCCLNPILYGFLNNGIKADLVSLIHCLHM
Kind of experiment: Radioligand binding to membranes of cells expressing cloned human Y5 receptor. Also noted: Ki Values, Human Y5; apparent Kd; pKd; The isolated clone (CG-19) turned out to contain a full length cDNA; The longest open reading frame encodes a 455 amino acid protein. Particulars: read-out: Binding Affinity Ki vs. ^125I-PYY, Human Receptor Y5; Table 14; stably transfected LM(tk-) cells.

In experiment [8] the target is T6, α1a (Homo sapiens, UniProt P35348).
T6 sequence (P35348 1-466): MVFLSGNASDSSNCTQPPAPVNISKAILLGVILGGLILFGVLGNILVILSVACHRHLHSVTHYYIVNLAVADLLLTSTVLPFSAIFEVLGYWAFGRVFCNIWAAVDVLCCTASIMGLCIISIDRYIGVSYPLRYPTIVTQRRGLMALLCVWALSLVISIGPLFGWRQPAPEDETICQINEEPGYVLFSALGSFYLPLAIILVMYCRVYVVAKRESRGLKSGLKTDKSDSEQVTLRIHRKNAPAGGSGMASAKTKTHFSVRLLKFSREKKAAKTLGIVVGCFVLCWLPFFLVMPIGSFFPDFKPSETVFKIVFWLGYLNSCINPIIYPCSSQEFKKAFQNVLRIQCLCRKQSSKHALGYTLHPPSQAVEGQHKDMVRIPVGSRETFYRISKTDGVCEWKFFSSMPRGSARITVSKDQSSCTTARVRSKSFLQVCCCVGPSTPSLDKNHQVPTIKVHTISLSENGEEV
Kind of experiment: Binding at cloned human α1a adrenergic receptor.

T3 sequence (P28223 whole entry): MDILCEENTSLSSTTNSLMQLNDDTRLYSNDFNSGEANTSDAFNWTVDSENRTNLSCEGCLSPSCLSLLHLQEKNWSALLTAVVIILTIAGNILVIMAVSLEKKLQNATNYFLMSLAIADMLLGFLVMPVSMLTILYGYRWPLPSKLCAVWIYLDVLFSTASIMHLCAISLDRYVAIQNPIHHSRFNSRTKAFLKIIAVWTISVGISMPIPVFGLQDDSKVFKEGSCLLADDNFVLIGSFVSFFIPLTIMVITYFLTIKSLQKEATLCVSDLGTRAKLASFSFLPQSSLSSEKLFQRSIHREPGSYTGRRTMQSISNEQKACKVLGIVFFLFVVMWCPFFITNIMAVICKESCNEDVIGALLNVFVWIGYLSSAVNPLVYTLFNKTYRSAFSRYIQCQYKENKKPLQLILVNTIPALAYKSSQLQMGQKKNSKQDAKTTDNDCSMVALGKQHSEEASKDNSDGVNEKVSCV

Take `Cl.O=S(=O)(NC[C@H]1CC[C@H](CNCC2CCc3ccccc3C2)CC1)c1cccc2ccccc12` (mixture of isomers) [Compound 19]: the Ki in experiment [1] is 0.955 µM; in experiment [7], 0.011 µM. For the same molecule, the “pKi 5HT1Dα” value in experiment [2] stood at 6.04. The “pKi α1d” value in experiment [3] came to 6.90. Further, in experiment [4], the “pKi 5HT2” value worked out at 6.55. In addition, the “pKi α2a” value in experiment [5] was determined as 6.74. In addition, the “Two-hour food intake of food-deprived rats, percentage of intake compared to control rats, Mean” value in experiment [6] was 36%. Further, the “pKi α1a” value in experiment [8] amounted to 7.47.

For `Cl.O=[N+]([O-])c1ccccc1S(=O)(=O)NC[C@H]1CC[C@H](CNCC2CCc3ccccc3C2)CC1` (mixture of isomers) [Compound 20], the results for the Ki in experiment [1] and in experiment [7] were 7.76 µM and 0.0083 µM, respectively. Further, the “pKi 5HT1Dα” value in experiment [2] is recorded as 5.94. Besides, in experiment [3], the “pKi α1d” value was 7.01. For the same molecule, the “pKi 5HT2” value in experiment [4] is 5.93. Further, the “pKi α2a” value in experiment [5] turned out to be 7.31. Besides, in experiment [6], the “Two-hour food intake of food-deprived rats, percentage of intake compared to control rats, Mean” value was found to be 35%. Moreover, in experiment [8], the “pKi α1a” value was 7.72.

Regarding `Cl.Cl.Nc1ccccc1S(=O)(=O)NC[C@H]1CC[C@H](CNCC2CCc3ccccc3C2)CC1` (mixture of isomers) [Compound 22], the Ki worked out at 7.57 µM in experiment [1] and 0.011 µM in experiment [7]. Besides, in experiment [2], the “pKi 5HT1Dα” value was 5.98. Moreover, the “pKi α1d” value in experiment [3] was determined as 6.80. For the same molecule, the “pKi 5HT2” value in experiment [4] is on record as 5.99. The “pKi α2a” value in experiment [5] is on record as 7.05. For the same molecule, the “Two-hour food intake of food-deprived rats, percentage of intake compared to control rats, Mean” value in experiment [6] is on record as 55%. In experiment [8], the “pKi α1a” value amounted to 7.34.
